Source: ChEMBL document CHEMBL1201862, “PubChem BioAssay data set” (2004)
Where “and” joins values, the source holds several entries; their conditions need not be identical. Identical values can stand only once. Values belong to the compound of their own block, whether it stands above or below them. Calls of active or inactive are those of the source.

How the values were obtained:
[1] = test system: HT-1080; assay: cytotoxicity in HT1080 fibrosarcoma cells, cell-based, fluorescence readout (AID 620); format: functional; details: Homo sapiens
[2] = Luminescence Cell-Based Dose Confirmation HTS to Identify Inhibitors of Platelet Dense Granule Release. [Related pubchem assays: 1663 (Primary HTS), 1678 (Summary of Project)]; format: functional
[3] = molecular target: T1, Luciferin 4-monooxygenase (Photinus pyralis, UniProt P08659); assay: Counter Screen for Luciferase-based Assay Positives. [Related pubchem assays: 620, 618, 411 ]
[4] = molecular target: T1, Luciferin 4-monooxygenase; assay: firefly luciferase enzyme inhibitors, dose response, biochemical, luminescence (AID 1891)
[5] = molecular target: Ion channel NompC (Danio rerio, UniProt Q7T1G6); assay: Fluorescence counterscreen assay for TRPML3 agonists: dose response cell-based high-throughput screening assay to identify agonists of the transient receptor potential channel N1 (TRPN1). [Related pubchem assays: 1526, 1424, 1448 ]; format: functional
[6] = molecular target: T2, Mucolipin-3 (Homo sapiens, UniProt Q8TDD5); assay: Dose response cell-based high-throughput screening assay for agonists of the transient receptor potential channel ML3 (TRPML3). [Related pubchem assays: 1526, 1424, 1448 ]; format: functional
T2 sequence (Q8TDD5 whole entry): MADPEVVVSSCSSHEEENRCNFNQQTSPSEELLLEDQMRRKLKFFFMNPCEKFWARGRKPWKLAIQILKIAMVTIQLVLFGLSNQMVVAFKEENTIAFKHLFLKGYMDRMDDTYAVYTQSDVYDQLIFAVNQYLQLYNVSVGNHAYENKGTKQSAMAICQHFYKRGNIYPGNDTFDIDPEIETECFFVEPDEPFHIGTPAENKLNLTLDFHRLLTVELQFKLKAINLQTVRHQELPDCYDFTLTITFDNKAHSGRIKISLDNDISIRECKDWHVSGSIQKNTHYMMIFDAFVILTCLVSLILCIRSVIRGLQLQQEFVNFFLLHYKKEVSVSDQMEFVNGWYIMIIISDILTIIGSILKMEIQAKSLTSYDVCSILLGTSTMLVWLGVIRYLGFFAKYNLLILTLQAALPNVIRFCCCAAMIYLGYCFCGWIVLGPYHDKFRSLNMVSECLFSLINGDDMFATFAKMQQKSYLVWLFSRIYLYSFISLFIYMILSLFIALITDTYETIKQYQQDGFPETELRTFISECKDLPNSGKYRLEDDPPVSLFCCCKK

[7] = molecular target: T3, Aminopeptidase N (Plasmodium falciparum FcB1/Columbia, UniProt O96935); assay: P. falciparum M1AAP inhibitors, biochemical, fluorogenic H-Leu-NHMec substrate, 1536-well (AID 1445); parameters: species or system Plasmodium falciparum 3D7, 3D7
T3 sequence (O96935 whole entry): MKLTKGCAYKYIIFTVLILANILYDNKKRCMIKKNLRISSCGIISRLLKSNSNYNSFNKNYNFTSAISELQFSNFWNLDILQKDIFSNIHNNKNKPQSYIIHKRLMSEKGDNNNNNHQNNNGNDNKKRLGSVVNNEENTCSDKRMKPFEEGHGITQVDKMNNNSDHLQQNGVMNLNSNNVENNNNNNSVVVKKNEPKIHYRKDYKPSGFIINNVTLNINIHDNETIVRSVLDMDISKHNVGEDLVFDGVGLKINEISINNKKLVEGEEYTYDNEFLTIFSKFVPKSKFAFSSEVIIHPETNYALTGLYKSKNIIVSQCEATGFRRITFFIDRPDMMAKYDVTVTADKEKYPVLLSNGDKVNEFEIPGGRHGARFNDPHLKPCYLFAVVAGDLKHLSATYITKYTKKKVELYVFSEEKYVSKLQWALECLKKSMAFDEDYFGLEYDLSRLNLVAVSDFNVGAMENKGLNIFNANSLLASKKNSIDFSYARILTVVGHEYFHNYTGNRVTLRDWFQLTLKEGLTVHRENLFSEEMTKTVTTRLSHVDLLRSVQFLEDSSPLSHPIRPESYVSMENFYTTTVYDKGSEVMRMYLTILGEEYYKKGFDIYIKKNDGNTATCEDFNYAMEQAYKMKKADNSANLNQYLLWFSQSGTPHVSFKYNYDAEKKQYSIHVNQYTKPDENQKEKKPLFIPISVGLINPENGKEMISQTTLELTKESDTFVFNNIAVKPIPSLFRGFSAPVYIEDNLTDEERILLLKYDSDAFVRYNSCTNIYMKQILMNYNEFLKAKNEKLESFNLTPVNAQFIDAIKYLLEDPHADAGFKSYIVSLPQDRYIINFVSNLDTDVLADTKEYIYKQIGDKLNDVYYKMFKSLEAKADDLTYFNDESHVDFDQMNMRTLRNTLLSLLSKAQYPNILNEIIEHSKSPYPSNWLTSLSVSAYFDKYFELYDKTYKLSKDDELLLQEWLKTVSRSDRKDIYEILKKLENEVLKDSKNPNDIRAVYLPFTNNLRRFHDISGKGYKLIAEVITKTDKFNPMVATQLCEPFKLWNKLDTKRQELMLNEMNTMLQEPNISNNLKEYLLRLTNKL

[8] = molecular target: Large T antigen (Simian virus 40, UniProt P03070); format: functional, Betapolyomavirus macacae;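 further: Confirmatory-stage PubChem screen for compounds that inhibit SV40 T antigen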
[9] = molecular target: T4, Phosphomannomutase 2 (Homo sapiens, UniProt O15305); assay: Counter screen SAR assay for PMM2 inhibitors via a fluorescence intensity assay. [Related pubchem assays (depositor defined):AID1545, AID1574]
T4 sequence (O15305 whole entry): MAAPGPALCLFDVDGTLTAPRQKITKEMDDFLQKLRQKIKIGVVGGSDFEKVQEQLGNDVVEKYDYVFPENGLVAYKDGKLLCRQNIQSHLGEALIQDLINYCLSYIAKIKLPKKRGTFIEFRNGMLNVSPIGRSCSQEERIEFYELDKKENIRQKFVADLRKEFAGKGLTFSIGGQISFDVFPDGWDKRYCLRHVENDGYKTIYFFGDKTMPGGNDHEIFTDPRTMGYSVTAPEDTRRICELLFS

[10] = molecular target: T5, Mannose-6-phosphate isomerase (Homo sapiens, UniProt P34949); assay: PMI enzyme inhibitors, confirmation, biochemical, fluorescence intensity (AID 1535)
T5 sequence (P34949 whole entry): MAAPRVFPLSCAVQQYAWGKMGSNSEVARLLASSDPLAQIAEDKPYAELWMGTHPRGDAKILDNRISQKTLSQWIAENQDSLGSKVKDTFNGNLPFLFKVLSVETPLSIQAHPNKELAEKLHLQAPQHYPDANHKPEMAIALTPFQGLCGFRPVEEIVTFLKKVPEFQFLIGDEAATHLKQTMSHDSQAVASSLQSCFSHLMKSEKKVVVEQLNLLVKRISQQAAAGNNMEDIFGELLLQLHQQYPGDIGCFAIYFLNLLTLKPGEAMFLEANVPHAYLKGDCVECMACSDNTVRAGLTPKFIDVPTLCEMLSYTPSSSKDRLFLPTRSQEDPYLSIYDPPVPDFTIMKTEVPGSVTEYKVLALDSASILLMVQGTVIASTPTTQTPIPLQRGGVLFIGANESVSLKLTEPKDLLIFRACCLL

[11] = molecular target: Paired box protein Pax-8 (Homo sapiens, UniProt Q06710); assay: inhibitors of PAX8-driven TPO luciferase reporter, dose response, RMG-I cells, cherry-pick (AID 687027); format: functional, cell-based;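 further: luciferase reporter driven by Pax8 target thyroperoxidase promoter measured by SteadyGlo luminescence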
[12] = cytotoxicity in OVCAR8 ovarian cancer cells, dose response, PAX8 project, cell-based, plate reader, dry powder samples (AID 743197); format: functional; details: OVCAR-8
[13] = IGROV1 ovarian cancer cell cytotoxicity, dose response, PAX8 inhibitor project, plate reader, dry powder samples (AID 743043); format: functional, cell-based; details: IGROV-1
[14] = NIH:OVCAR-3 ovarian cancer cell cytotoxicity, dose response, PAX8 inhibitor project, plate reader, dry powder samples (AID 743044); format: functional, cell-based
[15] = molecular target: Heat shock protein HSP 90-alpha (Homo sapiens, UniProt P07900); assay: Luminescence-based dose response biochemical high throughput screening assay for inhibitors of the Heat Shock Protein 90 (HSP90). [Related pubchem assays: 1831 (Summary AID.), 1846 (Confirmation screen.), 1789 (Primary screen.)]
[16] = molecular target: Cytochrome P450 3A4 (Homo sapiens, UniProt P08684); details: Potency;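 further: confirmatory qHTS run detecting inhibitors and substrates of CYP3A4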
Sequence of Cytochrome P450 3A4 (P08684 whole entry): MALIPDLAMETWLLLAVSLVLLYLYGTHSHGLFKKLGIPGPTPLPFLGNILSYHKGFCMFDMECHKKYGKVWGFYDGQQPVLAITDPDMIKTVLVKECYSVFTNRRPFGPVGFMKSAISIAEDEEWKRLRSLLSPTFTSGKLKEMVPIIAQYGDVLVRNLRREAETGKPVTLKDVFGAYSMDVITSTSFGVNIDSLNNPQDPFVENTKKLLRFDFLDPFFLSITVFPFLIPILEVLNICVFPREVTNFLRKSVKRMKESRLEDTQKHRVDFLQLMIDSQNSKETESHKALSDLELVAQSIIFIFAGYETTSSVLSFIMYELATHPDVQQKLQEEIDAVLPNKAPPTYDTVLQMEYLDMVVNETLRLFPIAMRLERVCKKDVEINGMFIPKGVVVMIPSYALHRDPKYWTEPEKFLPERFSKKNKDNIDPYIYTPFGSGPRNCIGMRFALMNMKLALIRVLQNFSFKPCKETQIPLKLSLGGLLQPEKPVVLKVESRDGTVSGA

T1 sequence (P08659 whole entry): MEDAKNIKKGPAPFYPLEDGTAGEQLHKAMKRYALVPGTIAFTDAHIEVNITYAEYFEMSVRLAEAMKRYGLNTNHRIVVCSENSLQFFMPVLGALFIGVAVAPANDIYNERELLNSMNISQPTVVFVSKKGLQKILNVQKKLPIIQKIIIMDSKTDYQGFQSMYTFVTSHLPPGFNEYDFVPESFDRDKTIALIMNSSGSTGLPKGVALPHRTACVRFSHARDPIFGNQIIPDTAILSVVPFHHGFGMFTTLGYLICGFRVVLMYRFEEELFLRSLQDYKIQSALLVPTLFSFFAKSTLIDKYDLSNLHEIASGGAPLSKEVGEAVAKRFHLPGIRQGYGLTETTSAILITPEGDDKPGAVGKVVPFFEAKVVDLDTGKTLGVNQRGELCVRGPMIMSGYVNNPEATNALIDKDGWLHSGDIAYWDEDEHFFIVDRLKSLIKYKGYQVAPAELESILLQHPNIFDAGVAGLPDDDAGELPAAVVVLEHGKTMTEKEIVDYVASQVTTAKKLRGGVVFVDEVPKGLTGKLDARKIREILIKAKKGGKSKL
Sequence of Ion channel NompC (Q7T1G6 whole entry): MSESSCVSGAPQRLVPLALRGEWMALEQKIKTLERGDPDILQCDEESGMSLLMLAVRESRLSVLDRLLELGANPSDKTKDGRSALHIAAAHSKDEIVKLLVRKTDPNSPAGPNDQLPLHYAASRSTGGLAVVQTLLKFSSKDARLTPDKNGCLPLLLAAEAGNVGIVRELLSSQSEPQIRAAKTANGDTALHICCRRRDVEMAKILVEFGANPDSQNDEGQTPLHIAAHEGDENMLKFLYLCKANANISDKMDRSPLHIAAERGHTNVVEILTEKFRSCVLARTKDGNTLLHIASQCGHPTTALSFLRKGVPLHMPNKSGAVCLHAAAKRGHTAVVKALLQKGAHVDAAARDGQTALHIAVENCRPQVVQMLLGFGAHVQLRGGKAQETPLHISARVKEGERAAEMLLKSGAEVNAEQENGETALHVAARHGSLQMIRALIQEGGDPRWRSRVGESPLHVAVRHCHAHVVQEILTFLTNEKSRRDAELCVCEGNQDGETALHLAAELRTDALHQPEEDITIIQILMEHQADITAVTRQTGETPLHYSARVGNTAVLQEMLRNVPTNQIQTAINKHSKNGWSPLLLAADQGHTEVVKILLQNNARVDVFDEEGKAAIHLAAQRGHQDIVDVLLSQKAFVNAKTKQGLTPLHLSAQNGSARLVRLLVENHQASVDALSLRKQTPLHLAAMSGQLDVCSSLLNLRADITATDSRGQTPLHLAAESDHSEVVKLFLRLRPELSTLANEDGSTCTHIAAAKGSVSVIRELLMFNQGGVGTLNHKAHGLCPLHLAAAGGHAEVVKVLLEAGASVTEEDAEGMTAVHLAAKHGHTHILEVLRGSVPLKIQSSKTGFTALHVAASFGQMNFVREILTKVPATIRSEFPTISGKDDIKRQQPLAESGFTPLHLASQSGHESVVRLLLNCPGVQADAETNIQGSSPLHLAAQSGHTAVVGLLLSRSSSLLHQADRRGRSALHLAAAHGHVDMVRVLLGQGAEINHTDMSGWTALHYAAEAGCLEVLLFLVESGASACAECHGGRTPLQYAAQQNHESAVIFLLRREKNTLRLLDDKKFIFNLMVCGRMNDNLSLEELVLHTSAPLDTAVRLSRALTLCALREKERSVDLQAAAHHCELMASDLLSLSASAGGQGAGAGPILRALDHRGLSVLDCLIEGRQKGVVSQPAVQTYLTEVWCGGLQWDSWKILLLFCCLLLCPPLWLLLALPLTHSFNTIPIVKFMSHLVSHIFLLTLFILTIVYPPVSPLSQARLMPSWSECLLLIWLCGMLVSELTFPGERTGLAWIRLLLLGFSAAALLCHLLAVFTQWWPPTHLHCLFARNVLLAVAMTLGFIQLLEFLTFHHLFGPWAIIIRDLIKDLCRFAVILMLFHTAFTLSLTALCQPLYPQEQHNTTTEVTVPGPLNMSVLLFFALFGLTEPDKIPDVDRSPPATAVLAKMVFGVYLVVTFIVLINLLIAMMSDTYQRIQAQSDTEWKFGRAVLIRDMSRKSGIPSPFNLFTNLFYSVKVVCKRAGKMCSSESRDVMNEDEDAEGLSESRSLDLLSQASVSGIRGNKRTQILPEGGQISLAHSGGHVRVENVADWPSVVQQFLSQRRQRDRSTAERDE
Sequence of Paired box protein Pax-8 (Q06710 whole entry): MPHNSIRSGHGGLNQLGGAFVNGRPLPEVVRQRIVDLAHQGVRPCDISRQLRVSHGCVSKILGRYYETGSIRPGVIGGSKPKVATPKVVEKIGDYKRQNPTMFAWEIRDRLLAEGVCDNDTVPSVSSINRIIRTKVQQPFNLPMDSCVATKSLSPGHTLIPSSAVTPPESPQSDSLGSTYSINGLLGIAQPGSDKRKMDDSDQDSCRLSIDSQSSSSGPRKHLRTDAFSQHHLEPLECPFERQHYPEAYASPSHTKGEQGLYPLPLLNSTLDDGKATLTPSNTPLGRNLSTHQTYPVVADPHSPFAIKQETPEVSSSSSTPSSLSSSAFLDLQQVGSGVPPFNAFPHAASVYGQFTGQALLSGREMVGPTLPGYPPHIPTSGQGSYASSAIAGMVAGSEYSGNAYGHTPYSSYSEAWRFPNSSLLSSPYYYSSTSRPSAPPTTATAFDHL
Sequence of Large T antigen (P03070 whole entry): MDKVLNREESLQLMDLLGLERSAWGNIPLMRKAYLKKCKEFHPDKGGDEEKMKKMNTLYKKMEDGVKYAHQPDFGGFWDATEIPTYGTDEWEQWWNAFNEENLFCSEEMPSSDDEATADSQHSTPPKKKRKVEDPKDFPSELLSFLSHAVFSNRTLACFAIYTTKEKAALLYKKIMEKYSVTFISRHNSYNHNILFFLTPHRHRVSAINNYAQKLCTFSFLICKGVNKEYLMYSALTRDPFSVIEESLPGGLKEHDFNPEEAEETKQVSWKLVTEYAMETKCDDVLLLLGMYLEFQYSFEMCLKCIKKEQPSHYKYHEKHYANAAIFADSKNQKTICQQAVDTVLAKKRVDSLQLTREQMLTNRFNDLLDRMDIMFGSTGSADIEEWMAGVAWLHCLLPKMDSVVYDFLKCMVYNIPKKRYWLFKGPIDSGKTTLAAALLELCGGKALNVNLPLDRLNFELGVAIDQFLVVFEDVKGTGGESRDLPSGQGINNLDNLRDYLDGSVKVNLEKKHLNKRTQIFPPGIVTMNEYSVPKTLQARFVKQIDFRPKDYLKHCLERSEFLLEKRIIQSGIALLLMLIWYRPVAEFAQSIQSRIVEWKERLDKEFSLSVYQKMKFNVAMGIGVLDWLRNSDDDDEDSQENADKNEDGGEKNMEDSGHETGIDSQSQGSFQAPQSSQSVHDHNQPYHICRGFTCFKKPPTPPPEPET

SMILES: COc1cccc(-c2nc(-c3ccccn3)no2)c1
EC50 [1]: > 50 µM (not active) | EC50 [2]: 8.12 µM (active) | EC50 [3]: 6.27 µM (active) | EC50 [4]: 4.73 µM (active)

SMILES: Cc1csc(NC(=O)c2cc3c(s2)CCCC3)n1
EC50 [1]: 25.7 µM (active) | EC50 [3]: 2.99 µM (active)

SMILES: C[C@@H]1CCCCO[C@H](CN(C)Cc2ccc(Cl)c(Cl)c2)[C@H](C)CN([C@@H](C)CO)C(=O)c2cc(NS(=O)(=O)c3ccc(Cl)cc3)ccc2O1
AC50 [11]: 6.76 µM (active) | AC50 [12]: 33.7 µM (active) | AC50 [13]: 49.7 µM (active) | AC50 [14]: 24.6 µM (active)

SMILES: Cc1ccc(S(=O)(=O)Nc2ccc3c(c2)C(=O)N([C@@H](C)CO)C[C@H](C)[C@H](CN(C)Cc2ccc(C(F)(F)F)cc2)OCCCC[C@H](C)O3)cc1
AC50 [11]: 6.16 µM (active) | AC50 [12]: 25.4 µM (active) | AC50 [13]: 42.5 µM (active) | AC50 [14]: 29.8 µM (active)

SMILES: O=c1cc(-c2ccccc2)oc2cccc(O)c12 [5-HYDROXYFLAVONE]
AC50 [16]: 6.31 µM (inconclusive) and 20 µM (inconclusive)

SMILES: C#CCCCCCCCCCCCC(O)CC(O)CO (stereo not drawn) [AVOCADYNE]
AC50 [16]: 39.8 µM (inconclusive)

The remaining lines, values ahead:

EC50 [5]: > 29.9 µM (not active) | EC50 [6]: 15.1 µM (not active)
SMILES: O=S(=O)(c1ccc2ccccc2c1)N1CCCCC1

EC50 [5]: > 29.9 µM (not active) | EC50 [6]: 3.83 µM (active)
SMILES: Cc1ccc(S(=O)(=O)N2CCC(C)CC2)c([N+](=O)[O-])c1

IC50 [7]: 57.6 µM (active) | IC50 [8]: 15.8 µM (active)
SMILES: N=C1/C(=C\c2coc3ccc(O)cc3c2=O)C(=O)N=C2SC=CN12

EC50 [5]: > 29.9 µM (not active) | EC50 [6]: 6.34 µM (active)
SMILES: COc1ccc(CCNC(=O)COc2ccc(N(C)S(=O)(=O)c3ccc(Cl)cc3)cc2)cc1

IC50 [7]: 7.44 µM (active)
SMILES: CCOC(=O)c1cc(-c2cccc([N+](=O)[O-])c2)nc2[nH]c(=O)[nH]c(=O)c12

IC50 [9]: > 100 µM (inactive) | IC50 [10]: 22.7 µM (active)
SMILES: O=c1c2ccccc2sn1-c1ncc([N+](=O)[O-])s1

IC50 [15]: 5.72 µM (active)
SMILES: O=C(O)c1cc(N/N=C/c2cccnc2)ccc1Cl
